*1 amine or outer side, *2 acyl side, *3 side chain or, on linkers, in order; H or OH if unused. Where a SMILES comes first, the peptide text is derived from it. Bridges are numbered along the chain shown (N, C = ends). [ ]: non-standard residue; d: D form. The star is where a group is joined. hPhe(3,5-F2-4-CF3) = N[C@@H](CCc1cc(F)c(C(F)(F)F)c(F)c1)C(=O)O; hPhe(3-Cl-4-CF3) = N[C@@H](CCc1ccc(C(F)(F)F)c(Cl)c1)C(=O)O; NPrPhe(4-CF3) = CCCN[C@@H](Cc1ccc(C(F)(F)F)cc1)C(=O)O; X45 = CCCN([C@@H](CC1CCC(F)(F)CC1)C(=O)[*:2])[*:1]; NPrPhe(4-Me) = CCCN[C@@H](Cc1ccc(C)cc1)C(=O)O; X16 = O=C([C@@H](N[*:1])C1CC(F)(F)C1)[*:2]; Morpholine(3S-CO) = O=C(O)[C@@H]1COCCN1; NMeGly(cPent) = CN[C@H](C(=O)O)C1CCCC1; NMeD = CN[C@@H](CC(=O)O)C(=O)O; NMeL = CN[C@@H](CC(C)C)C(=O)O; Morpholide = C1CN(*)CCO1; NMeA = CN[C@@H](C)C(=O)O; Ac5c = NC1(C(=O)O)CCCC1; Aze = O=C(O)[C@@H]1CCN1; NEtG = CCNCC(=O)O; Sar = CNCC(=O)O
Experiments:
[1] = target: GDP-bound NRAS wild-type protein (Homo sapiens, UniProt P01111); assay: Binding to NRAS by surface plasmon resonance (SPR), KD and KD ratio to KRAS
Procedure, shortened: (§1)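 Biotinylated GDP-bound RAS was captured at about 100–300 RU. Running buffer: HBS pH 7.4, 10 mM MgCl2, 10 µM GDP, 1 mM DTT, 0.01% Tween 20, 4% DMSO.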

[2] = test system: human lung cancer strain NCI-H441; format: cell-based
Procedure, shortened: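 Step one: dispense the test compound in serial DMSO dilutions. Step three: add the reagent and measure […].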

[3] = target: HRAS wild-type protein (Homo sapiens, UniProt P01112); assay: Binding to HRAS by surface plasmon resonance (SPR), KD and KD ratio to KRAS
Procedure, shortened: as §1

[4] = ratio of KD for GDP-bound NRAS wild-type protein to KD for KRAS
[5] = ratio of KD for HRAS wild-type protein to KD for KRAS
[6] = ratio of the KD value with respect to GDP-bound NRAS wild-type protein to the KD value with respect to KRAS
[7] = ratio of the KD value with respect to HRAS wild-type protein to the KD value with respect to KRAS

GDP-bound NRAS wild-type protein, sequence (P01111 whole entry): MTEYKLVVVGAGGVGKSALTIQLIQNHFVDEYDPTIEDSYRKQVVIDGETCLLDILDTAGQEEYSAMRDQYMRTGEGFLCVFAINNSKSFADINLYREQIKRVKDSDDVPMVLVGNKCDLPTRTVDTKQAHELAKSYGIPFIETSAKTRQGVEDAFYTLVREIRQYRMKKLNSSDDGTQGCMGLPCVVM
HRAS wild-type protein, sequence (P01112 whole entry): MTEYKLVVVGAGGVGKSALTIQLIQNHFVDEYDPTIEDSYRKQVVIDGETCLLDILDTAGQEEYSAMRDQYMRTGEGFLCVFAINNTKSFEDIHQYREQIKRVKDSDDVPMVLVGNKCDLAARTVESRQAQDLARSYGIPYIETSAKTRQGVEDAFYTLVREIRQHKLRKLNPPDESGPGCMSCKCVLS

| IC50 [2] [nM] | SMILES | NRAS /KRAS [1, 4] | HRAS /KRAS [3, 5] | NRAS /KRAS [1, 6] | HRAS /KRAS [3, 7] | NRAS /KRAS ([1]; ratio of KD value for GDP-bound NRAS wild-type protein to KD value for KRAS (SPR)) | HRAS /KRAS ([3]; ratio of KD value for HRAS wild-type protein to KD value for KRAS (SPR)) |
| --- | --- | --- | --- | --- | --- | --- | --- |
| 20.2 | CCCN1C(=O)CN(C)C(=O)CN(CC)C(=O)[C@H]([C@@H](C)CC)NC(=O)[C@H](CC(C)C)N(C)C(=O)C[C@@H](C(=O)N2CCOCC2)N(C)C(=O)[C@H](C2CCCC2)N(C)C(=O)C2(CCCC2)NC(=O)[C@@H]2COCCN2C(=O)[C@H](CCc2ccc(C(F)(F)F)c(Cl)c2)NC(=O)CN(C)C(=O)[C@@H]1Cc1ccc(C(F)(F)F)cc1 [PP0299] ([NMeL]I[NEtG][Sar][NPrPhe(4-CF3)][Sar][hPhe(3-Cl-4-CF3)][Morpholine(3S-CO)][Ac5c][NMeGly(cPent)][NMeD]-Morpholide; lactam N-11) | B (a compound having 3 or more and less than 10 is denoted as B) | B (a compound having 3 or more and less than 10 is denoted as B) |  |  |  |  |
| 3.2 | CC[C@H](C)[C@@H]1NC(=O)[C@H](CC(C)C)N(C)C(=O)C[C@@H](C(=O)N2CCOCC2)N(C)C(=O)[C@H](C2CCCC2)N(C)C(=O)C2(CCC2)NC(=O)[C@@H]2CC(F)(F)CN2C(=O)[C@H](CCc2cc(F)c(C(F)(F)F)c(F)c2)NC(=O)CN(C)C(=O)[C@H](Cc2ccc(C(F)(F)F)cc2)N2CCCC[C@@H](C2=O)N(C)C(=O)CN(C)C1=O [PP0575] |  |  | B (a compound having 3 or more and less than 10 is denoted as B) | B (a compound having 3 or more and less than 10 is denoted as B) |  |  |
| 44.8 | CCCN1C(=O)CN(C)C(=O)[C@@H]2CCN2C(=O)[C@H](C2CC(F)(F)C2)NC(=O)[C@H](CC(C)C)N(C)C(=O)C[C@@H](C(=O)N2CCOCC2)N(C)C(=O)[C@H](C2CCCC2)N(C)C(=O)C2(CCCC2)NC(=O)[C@@H]2CCCN2C(=O)[C@H](CCc2cc(F)c(C(F)(F)F)c(F)c2)NC(=O)CN(C)C(=O)[C@@H]1Cc1ccc(C(F)(F)F)cc1 [PP0786] ([NMeL][X16][Aze][Sar][NPrPhe(4-CF3)][Sar][hPhe(3,5-F2-4-CF3)]P[Ac5c][NMeGly(cPent)][NMeD]-Morpholide; lactam N-11) | B (a compound having 3 or more and less than 10 is denoted as B) | B (a compound having 3 or more and less than 10 is denoted as B) |  |  |  |  |
| 6.3 | CCO[C@@H]1C[C@H]2C(=O)NC3(CCC3)C(=O)N(C)[C@@H](C3CCCC3)C(=O)N(C)[C@H](C(=O)N3CCOCC3)CC(=O)N(C)[C@@H](CC3CCCCC3)C(=O)N[C@@H]([C@@H](C)CC)C(=O)N(C)CC(=O)N(C)[C@H]3CCCCN(C3=O)[C@@H](Cc3ccc(C(F)(F)F)cc3)C(=O)N(C)CC(=O)N[C@@H](CCc3cc(F)c(C(F)(F)F)c(F)c3)C(=O)N2C1 [PP0716] |  |  | C (A compound having a KD ratio of 0.1 or more and less than 3 is denoted as C) | B (a compound having 3 or more and less than 10 is denoted as B) |  |  |
| 4.8 | C=CCC[C@H]1C(=O)N[C@@H]([C@@H](C)CC)C(=O)N(C)CC(=O)N(C)[C@H]2CCCCN(C2=O)[C@@H](Cc2ccc(C(F)(F)F)cc2)C(=O)N(C)CC(=O)N[C@@H](CCc2cc(F)c(C(F)(F)F)c(F)c2)C(=O)N2C[C@H](OCC)C[C@H]2C(=O)N[C@](C)(CC=C)C(=O)N(C)[C@@H](C2CCCC2)C(=O)N(C)[C@H](C(=O)N2CCOCC2)CC(=O)N1C [PP0875] | C (A compound having a KD ratio of 0.1 or more and less than 3 is denoted as C) | B (a compound having 3 or more and less than 10 is denoted as B) |  |  |  |  |
| 5.7 | CCCN1C(=O)[C@@H]2CCN2C(=O)[C@H](C)N(C)C(=O)[C@H]([C@@H](C)CC)NC(=O)[C@H](CC(C)C)N(C)C(=O)C[C@@H](C(=O)N2CCOCC2)N(C)C(=O)[C@H](C2CCCC2)N(C)C(=O)C2(CCCC2)NC(=O)[C@@H]2CCCN2C(=O)[C@H](CCc2ccc(C(F)(F)F)c(Cl)c2)NC(=O)CN(C)C(=O)[C@@H]1CC1CCC(F)(F)CC1 [PP0527] ([NMeL]I[NMeA][Aze][X45][Sar][hPhe(3-Cl-4-CF3)]P[Ac5c][NMeGly(cPent)][NMeD]-Morpholide; lactam N-11) |  |  | C (A compound having a KD ratio of 0.1 or more and less than 3 is denoted as C) | C (A compound having a KD ratio of 0.1 or more and less than 3 is denoted as C) |  |  |
| 7.8 | CC[C@H](C)[C@@H]1NC(=O)[C@H](CC2CC2)N(C)C(=O)C[C@@H](C(=O)N(C)C)N(C)C(=O)[C@H](C2CCCC2)N(C)C(=O)C2(CCC2)N(C)C(=O)[C@@H]2CCCN2C(=O)[C@H](CCc2cc(F)c(C(F)(F)F)c(F)c2)NC(=O)CN(C)C(=O)[C@H](Cc2ccc(C)cc2)N2CC/C=C\C[C@@H](C2=O)N(C)C(=O)[C@@H]2CCCN2C1=O [PP1798] |  |  |  |  | A (a compound having 10 or more and less than 20 is denoted as A) | B (a compound having 3 or more and less than 10 is denoted as B) |
| 6.5 | CCO[C@@H]1C[C@H]2C(=O)NC3(CC(C)(C)C3)C(=O)N(C)[C@@H](C3CCCC3)C(=O)N(C)[C@H](C(=O)N(C)CC)CC(=O)N(C)[C@H]3CCCCCc4ccc(cc4)C[C@@H](C(=O)N(C)CC(=O)N[C@@H](CCc4ccc(C(F)(F)F)c(OC)c4)C(=O)N2C1)N1CC/C=C\C[C@@H](C1=O)N(C)C(=O)CN(C)C(=O)[C@H]([C@@H](C)CC)NC3=O [PP2259] |  |  | A (a compound having 10 or more and less than 20 is denoted as A) | B (a compound having 3 or more and less than 10 is denoted as B) |  |  |
| 26.1 | CCCN1C(=O)CN(C)C(=O)CN(C)C(=O)[C@H]([C@@H](C)CC)NC(=O)[C@H](CC(C)C)N(C)C(=O)C[C@@H](C(=O)N2CCOCC2)N(C)C(=O)[C@H](C2CCCC2)N(C)C(=O)C2(CCCC2)NC(=O)[C@@H]2CCCN2C(=O)[C@H](CCc2ccc(C(F)(F)F)c(Cl)c2)NC(=O)CN(CC)C(=O)[C@@H]1Cc1ccc(C)cc1 [PP0066] ([NMeL]I[Sar][Sar][NPrPhe(4-Me)][NEtG][hPhe(3-Cl-4-CF3)]P[Ac5c][NMeGly(cPent)][NMeD]-Morpholide; lactam N-11) | B (a compound having 3 or more and less than 10 is denoted as B) | C (A compound having a KD ratio of 0.1 or more and less than 3 is denoted as C) |  |  |  |  |
| 11.4 | CCO[C@@H]1C[C@H]2C(=O)NC3(CCC3)C(=O)N(C)[C@@H](C3CCCC3)C(=O)N(C)[C@H](C(=O)N(C)C)CC(=O)N(C)[C@@H](COC)C(=O)N[C@@H]([C@@H](C)CC)C(=O)N(C)CC(=O)N(C)[C@H]3CCCCN(C3=O)[C@@H](Cc3ccc(C(F)(F)F)cc3)C(=O)N(C)CC(=O)N[C@@H](CCc3cc(F)c(C(F)(F)F)c(F)c3)C(=O)N2C1 [PP0704] |  |  | C (A compound having a KD ratio of 0.1 or more and less than 3 is denoted as C) | C (A compound having a KD ratio of 0.1 or more and less than 3 is denoted as C) |  |  |

| SMILES | IC50 [2] [nM] | NRAS /KRAS [1, 4] | HRAS /KRAS [3, 5] | NRAS /KRAS [1, 6] | HRAS /KRAS [3, 7] | NRAS /KRAS ([1]; ratio of KD value for GDP-bound NRAS wild-type protein to KD value for KRAS (SPR)) | HRAS /KRAS ([3]; ratio of KD value for HRAS wild-type protein to KD value for KRAS (SPR)) |
| --- | --- | --- | --- | --- | --- | --- | --- |
| CCO[C@@H]1C[C@H]2C(=O)NC3(CC(C)(C)C3)C(=O)N(C)[C@@H](C3CCCC3)C(=O)N(C)[C@H](C(=O)N3CCCCC3)CC(=O)N(C)[C@H]3CCCCCc4ccc(cc4)C[C@@H](C(=O)N(C)CC(=O)N[C@@H](CCc4ccc(C(F)(F)F)c(OC)c4)C(=O)N2C1)N1CC/C=C\C[C@@H](C1=O)N(C)C(=O)CN(C)C(=O)[C@H]([C@@H](C)CC)NC3=O [PP3036] | 8 | A (a compound having 10 or more and less than 20 is denoted as A) | B (a compound having 3 or more and less than 10 is denoted as B) |  |  |  |  |
